Data taken from the NIST ThermoML archive (doi:10.1021/je2013704).

Assay: mn = molality of the nth substance listed, in mol/kg
Conditions: Liquid, Vibrating tube method

[Ca+2].[Cl-].[Cl-] [calcium chloride] + O
mass density [kg/m3]
Conditions | 283.15 K | 298.12 K | 323.07 K | 348.04 K | 372.99 K | 397.97 K | 422.94 K | 447.94 K | 472.96 K
1050 kPa, m1 = 1 | 1087.02 | 1082.37 | 1072.02 | 1058.99 | 1043.73 | 1026.22 | 1006.8 | 985.31 | –
1050 kPa, m1 = 3 | – | 1225.07 | 1212.47 | 1198.77 | 1184.12 | 1167.99 | 1150.79 | 1132.22 | –
1050 kPa, m1 = 6 | – | 1388 | 1372.06 | 1356.18 | 1340.35 | 1324.03 | 1307.39 | 1290.23 | –
10020 kPa, m1 = 1 | 1090.65 | 1085.93 | 1075.48 | 1062.51 | 1047.42 | 1030.11 | 1011.09 | 989.96 | 966.77
10020 kPa, m1 = 3 | – | 1228.17 | 1215.47 | 1201.83 | 1187.2 | 1171.26 | 1154.33 | 1135.97 | 1116.32
10020 kPa, m1 = 6 | – | 1390.67 | 1374.67 | 1358.9 | 1343.09 | 1326.81 | 1310.4 | 1293.23 | 1275.65
19970 kPa, m1 = 1 | 1094.63 | 1089.7 | 1079.27 | 1066.31 | 1051.39 | 1034.38 | 1015.62 | 995.04 | 972.43
19970 kPa, m1 = 3 | – | 1231.3 | 1218.73 | 1205.15 | 1190.58 | 1174.82 | 1158.03 | 1139.99 | 1120.67
19970 kPa, m1 = 6 | – | 1393.43 | 1377.58 | 1361.82 | 1346.07 | 1329.91 | 1313.54 | 1296.61 | 1279.19
29900 kPa, m1 = 1 | 1098.56 | 1093.48 | 1082.99 | 1070.05 | 1055.27 | 1038.38 | 1020 | 999.9 | 977.79
29900 kPa, m1 = 3 | – | 1234.6 | 1221.98 | 1208.41 | 1193.94 | 1178.23 | 1161.68 | 1143.88 | 1124.82
29900 kPa, m1 = 6 | – | 1396.28 | 1380.48 | 1364.67 | 1349.03 | 1332.86 | 1316.63 | 1299.83 | 1282.53
39830 kPa, m1 = 1 | 1102.39 | 1097.27 | 1086.62 | 1073.75 | 1059.05 | 1042.42 | 1024.3 | 1004.57 | 983.04
39830 kPa, m1 = 3 | – | 1237.81 | 1225.08 | 1211.58 | 1197.14 | 1181.65 | 1165.21 | 1147.62 | 1129.01
39830 kPa, m1 = 6 | – | 1399.14 | 1383.27 | 1367.55 | 1351.92 | 1335.87 | 1319.7 | 1303.02 | 1285.96
49760 kPa, m1 = 1 | 1106.11 | 1100.95 | 1090.1 | 1077.29 | 1062.77 | 1046.36 | 1028.53 | 1009.07 | 988.08
49760 kPa, m1 = 3 | – | 1240.96 | 1228.11 | 1214.64 | 1200.38 | 1184.96 | 1168.72 | 1151.3 | 1132.99
49760 kPa, m1 = 6 | – | 1401.93 | 1385.94 | 1370.29 | 1354.76 | 1338.78 | 1322.71 | 1306.09 | 1289.19
59680 kPa, m1 = 1 | 1109.84 | 1104.52 | 1093.62 | 1080.87 | 1066.34 | 1050.19 | 1032.62 | 1013.53 | 992.91
59680 kPa, m1 = 3 | – | 1244 | 1231.21 | 1217.8 | 1203.46 | 1188.2 | 1172.12 | 1154.99 | 1136.86
59680 kPa, m1 = 6 | – | 1404.61 | 1388.68 | 1373.09 | 1357.57 | 1341.67 | 1325.64 | 1309.22 | 1292.45
68120 kPa, m1 = 1 | 1113.04 | 1107.46 | 1096.56 | 1083.78 | 1069.39 | 1053.29 | 1036 | 1017.15 | 996.86
68120 kPa, m1 = 3 | – | 1246.57 | 1233.72 | 1220.39 | 1206.1 | 1190.88 | 1174.94 | 1157.94 | 1140.04
68120 kPa, m1 = 6 | – | 1406.89 | 1390.9 | 1375.4 | 1359.88 | 1344 | 1328.12 | 1311.73 | 1295.04
